US20060167109A1, “Methods of reducing rhinovirus contagion and related compositions” (priority 2002, published 2006)

Tests used:
Assay in all cases: HRV cytopathic effect assay
Assay type in all cases: cell-based
Conditions in all cases: Human rhinovirus sp.
HRV serotype 12 = system: HRV serotype 12
Description: (§1) For sensitivity testing to pleconaril, the appropriate cells were seeded into 96 well plates at a concentration of 4×10^4/well. After an overnight incubation at 37° C., the medium was removed and the cells were infected with 150 μL of a dilution of virus previously titrated to give ≧85% lysis of the monolayer after 3 days of incubation. The plates were incubated for 1 hour at the appropriate temperature and then overlaid with 50 μL of medium containing serial 2-fold dilutions of pleconaril in 2% DMSO. The final DMSO concentration in the assay was always 0.5%. No virus and no pleconaril controls were included on each plate. All drug concentrations were run in quadruplicate. The plates were then incubated for 3 days at the appropriate temperature followed by processing as described above.

HRV serotype 16 = system: HRV serotype 16
Description: as §1

HRV serotype 17 = system: HRV serotype 17
Description: as §1

HRV serotype 18 = system: HRV serotype 18
Description: as §1

HRV serotype 19 = system: HRV serotype 19
Description: as §1

HRV serotype 21 = system: HRV serotype 21
Description: as §1

HRV serotype 23 = system: HRV serotype 23
Description: as §1

HRV serotype 29 = system: HRV serotype 29
Description: as §1

HRV serotype 2 = system: HRV serotype 2
Description: as §1

HRV serotype 37 = system: HRV serotype 37
Description: as §1

HRV serotype 41 = system: HRV serotype 41
Description: as §1

HRV serotype 42 = system: HRV serotype 42
Description: as §1

HRV serotype 44 = system: HRV serotype 44
Description: as §1

HRV serotype 45 = system: HRV serotype 45
Description: as §1

HRV serotype 46 = system: HRV serotype 46
Description: as §1

HRV serotype 47 = system: HRV serotype 47
Description: as §1

HRV serotype 48 = system: HRV serotype 48
Description: as §1

HRV serotype 49 = system: HRV serotype 49
Description: as §1

HRV serotype 4 = system: HRV serotype 4
Description: as §1

HRV serotype 51 = system: HRV serotype 51
Description: as §1

HRV serotype 53 = system: HRV serotype 53
Description: as §1

HRV serotype 54 = system: HRV serotype 54
Description: as §1

HRV serotype 57 = system: HRV serotype 57
Description: as §1

HRV serotype 59 = system: HRV serotype 59
Description: as §1

HRV serotype 62 = system: HRV serotype 62
Description: as §1

HRV serotype 65 = system: HRV serotype 65
Description: as §1

HRV serotype 66 = system: HRV serotype 66
Description: as §1

HRV serotype 69 = system: HRV serotype 69
Description: as §1

HRV serotype 6 = system: HRV serotype 6
Description: as §1

HRV serotype 70 = system: HRV serotype 70
Description: as §1

HRV serotype 72 = system: HRV serotype 72
Description: as §1

HRV serotype 76 = system: HRV serotype 76
Description: as §1

HRV serotype 78 = system: HRV serotype 78
Description: as §1

HRV serotype 79 = system: HRV serotype 79
Description: as §1

HRV serotype 7 = system: HRV serotype 7
Description: as §1

HRV serotype 85 = system: HRV serotype 85
Description: as §1

HRV serotype 86 = system: HRV serotype 86
Description: as §1

HRV serotype 87 = system: HRV serotype 87
Description: as §1

HRV serotype 88 = system: HRV serotype 88
Description: as §1

HRV serotype 91 = system: HRV serotype 91
Description: as §1

HRV serotype 93 = system: HRV serotype 93
Description: as §1

HRV serotype 94 = system: HRV serotype 94
Description: as §1

HRV serotype 95 = system: HRV serotype 95
Description: as §1

HRV serotype 96 = system: HRV serotype 96
Description: as §1

HRV serotype 97 = system: HRV serotype 97
Description: as §1

HRV serotype 9 = system: HRV serotype 9
Description: as §1

Question: `Cc1cc(CCCOc2c(C)cc(-c3noc(C(F)(F)F)n3)cc2C)on1` [pleconaril, 3-[3,5-dimethyl-4-[3-(3-methyl-5-isoxazolyl)propoxy]phenyl]-5-(trifluoromethyl)-1,2,4-oxadiazole] was tested. Which IC50 (HRV serotype 12) did it give?
Answer: 390 ± 120 nM

Question: What about the IC50 (HRV serotype 16) of the same molecule?
Answer: 570 ± 190 nM

Question: What about the IC50 (HRV serotype 17) of the same molecule?
Answer: 230 ± 80 nM

Question: What about the IC50 (HRV serotype 18) of the same molecule?
Answer: 240 ± 100 nM

Question: What about the IC50 (HRV serotype 19) of the same molecule?
Answer: 200 ± 10 nM

Question: What about the IC50 (HRV serotype 21) of the same molecule?
Answer: 40 ± 10 nM

Question: What about the IC50 (HRV serotype 23) of the same molecule?
Answer: 320 ± 10 nM

Question: And the IC50 (HRV serotype 29)?
Answer: 270 ± 70 nM

Question: What about the IC50 (HRV serotype 2; HRV2, Table 2, mean of at least two independent determinations) of the same molecule?
Answer: 30 ± 30 nM

Question: And the IC50 (HRV serotype 2; serotype 2)?
Answer: 30 ± 30 nM

Question: What about the IC50 (HRV serotype 37) of the same molecule?
Answer: 60 ± 20 nM

Question: What about the IC50 (HRV serotype 41) of the same molecule?
Answer: 1750 ± 1490 nM

Question: And the IC50 (HRV serotype 42)?
Answer: > 12.5 µM

Question: What about the IC50 (HRV serotype 44) of the same molecule?
Answer: 110 ± 70 nM

Question: What about the IC50 (HRV serotype 45) of the same molecule?
Answer: 4.3 ± 1.83 µM

Question: And the IC50 (HRV serotype 46)?
Answer: 160 ± 50 nM

Question: And the IC50 (HRV serotype 47)?
Answer: 10 nM

Question: And the IC50 (HRV serotype 48)?
Answer: 1800 ± 630 nM

Question: What about the IC50 (HRV serotype 49) of the same molecule?
Answer: 170 ± 60 nM

Question: What about the IC50 (HRV serotype 4) of the same molecule?
Answer: > 12.5 µM

Question: And the IC50 (HRV serotype 51)?
Answer: 50 ± 30 nM

Question: What about the IC50 (HRV serotype 53) of the same molecule?
Answer: 280 ± 60 nM

Question: And the IC50 (HRV serotype 54)?
Answer: 460 ± 110 nM

Question: And the IC50 (HRV serotype 57)?
Answer: 170 ± 50 nM

Question: What about the IC50 (HRV serotype 59) of the same molecule?
Answer: 780 ± 340 nM

Question: What about the IC50 (HRV serotype 62) of the same molecule?
Answer: 160 ± 60 nM

Question: And the IC50 (HRV serotype 65)?
Answer: 330 ± 100 nM

Question: What about the IC50 (HRV serotype 66) of the same molecule?
Answer: 110 ± 70 nM

Question: And the IC50 (HRV serotype 69)?
Answer: 6.77 ± 3.14 µM

Question: And the IC50 (HRV serotype 6)?
Answer: 60 ± 20 nM

Question: And the IC50 (HRV serotype 70)?
Answer: 300 ± 190 nM

Question: What about the IC50 (HRV serotype 72) of the same molecule?
Answer: 940 ± 300 nM

Question: What about the IC50 (HRV serotype 76) of the same molecule?
Answer: 240 ± 290 nM

Question: And the IC50 (HRV serotype 78)?
Answer: 80 ± 40 nM

Question: What about the IC50 (HRV serotype 79) of the same molecule?
Answer: 40 ± 60 nM

Question: What about the IC50 (HRV serotype 7) of the same molecule?
Answer: 50 ± 10 nM

Question: And the IC50 (HRV serotype 85)?
Answer: 50 ± 20 nM

Question: And the IC50 (HRV serotype 86)?
Answer: 130 ± 100 nM

Question: What about the IC50 (HRV serotype 87) of the same molecule?
Answer: > 12.5 µM

Question: And the IC50 (HRV serotype 88)?
Answer: 100 ± 40 nM

Question: What about the IC50 (HRV serotype 91) of the same molecule?
Answer: 730 ± 390 nM

Question: What about the IC50 (HRV serotype 93) of the same molecule?
Answer: > 12.5 µM

Question: What about the IC50 (HRV serotype 94) of the same molecule?
Answer: 1100 ± 440 nM

Question: And the IC50 (HRV serotype 95)?
Answer: 810 ± 510 nM

Question: What about the IC50 (HRV serotype 96) of the same molecule?
Answer: 90 ± 50 nM

Question: What about the IC50 (HRV serotype 97) of the same molecule?
Answer: > 12.5 µM

Question: What about the IC50 (HRV serotype 9) of the same molecule?
Answer: 220 ± 80 nM
